Measurements as given in US20240197652A1, “KETAMINE IN THE TREATMENT OF […]” (Awakn LS Europe Holdings Limited, priority 2021, published 2024).

Legend:
Type in all cases: in vivo, human
subjects with CSBD [1] = assay: Sensitivity to reward (SPSRQ), Example 10; details: for Sensitivity to Reward at 2-week follow up: after 100 mg racemic ketamine sublingual; for Sensitivity to Reward, pre-administration: baseline before 100 mg racemic ketamine sublingual; for % change in Sensitivity to Reward: pre-administration to 2-week follow up, 100 mg racemic ketamine sublingual
Description: Reward sensitivity was assessed using the SPSRQ. Behavioural tasks, EEG measurements, and subjective experience assessments were also completed.
(§1) A study was completed on the use of ketamine to treat CSBD. Subjects were assessed for CSBD using the Problematic Pornography Use Scale (PPUS) and were included if they received an PPUS score greater than 3. Three subjects in total were included (CSB1-CSB3). All three were administered sublingual lozenges comprising 100 mg of racemic ketamine.
(§2) The treatment protocol commenced in the same way as disclosed in the ketamine in subjects with gambling disorder study completed in EXAMPLE 7, with the exceptions outlined as follows: No behavioural tasks were completed. Self-report measures completed during EXAMPLE 10 included the Emotional Intimacy Measure, the Childhood Trauma Questionnaire, the Generalised Anxiety Disorder-7 (GAD-7), the Morningness-Eveningness Questionnaire (MEQ), and the Problematic Pornography Questionnaire (PPQ), the Acceptance and Action Questionnaire, and the Psychological and Interpersonal Relationship Scales (PAIRS).

[2] = test system: subjects with gambling disorder; assay: Problem Gambling Severity Index (PGSI), Example 7; details: for PGSI score at 2-week follow up / PGSI classification at two-week follow up: after 100 mg racemic ketamine sublingual; for PGSI score, pre-administration / PGSI classification, pre-administration: baseline before 100 mg racemic ketamine sublingual; for % change in PGSI score: pre-administration to 2-week follow up, 100 mg racemic ketamine sublingual
Description: A study was completed on the use of ketamine to treat gambling disorder. Subjects were assessed for gambling disorder using the PGSI. Subjects were included if they received a PGSI score greater than 3. Five subjects in total were included (G1-G5). All five subjects were administered ketamine. Blood samples were collected from all five subjects. Blood samples were analysed to determine ketamine and ketamine metabolite levels, and each subject was assessed post-administration to determine the effectiveness of the treatment.
The study spanned a total of 30 days (not counting initial contact and prescreening). Prescreening of all subjects was conducted by phone, and subjects recorded self-report measures, including the Sensitivity to Punishment and Sensitivity to Reward Questionnaire (SPSRQ) and the Gambling Related Cognitions Questionnaire. Prior to beginning treatment, each subject completed the Beck Depression Inventory (BDI) to determine a baseline depression score. Total scores of 0-13 are minimal, 14-19 are mild, 20-28 are moderate, and 29-63 are severe (Beck, Steer, and Brown, 1996).
On Day 3, each subject returned on-site and was administered ketamine. 100 mg of racemic ketamine was administered in as sublingual lozenges.
The remaining follow-up sessions were completed online. Follow-up 1 was completed on Day 4, Follow-up 2 on Day 14, and Follow-up 3 on Day 30. At each follow-up session, the same self-report measures and behavioural tasks were completed.
The PGSI classifies potential problem gamblers in four categories based on scores. A score of 0 is a non-problem gambler, a score of between 1 and 2 is a low-risk gamber (mild), a score of 3-7 is a moderate-risk gambler (moderate), and a score of 8 or above is a problem gambler (severe). Subject G4 was classified as a moderate-risk (moderate) gambler pre-administration, and at the two-week follow up was classified as a low-risk (mild) gambler. Subject G5 was classified as a problem (severe) gambler pre-administration, and at the two-week follow up was classified as a low-risk (mild) gambler

subjects with CSBD [3] = assay: Hours of pornography viewed per day, Example 10; details: for hours of pornography watched daily at 2-week follow up: after 100 mg racemic ketamine sublingual; for hours of pornography watched daily, pre-administration: baseline before 100 mg racemic ketamine sublingual; for % change in hours of pornography viewed: pre-administration to 2-week follow up, 100 mg racemic ketamine sublingual
Description: as §1, §2

CNC1(c2ccccc2Cl)CCCCC1=O (racemic) [ketamine, 2-(2-chlorophenyl)-2-(methylamino)-cyclohexanone]
Sensitivity to Reward at 2-week follow up (subjects with CSBD [1]; subject CSB1): 9 | Sensitivity to Reward, pre-administration (subjects with CSBD [1]; subject CSB1): 10 | % change in Sensitivity to Reward (subjects with CSBD [1]; subject CSB1): −10% | Sensitivity to Reward at 2-week follow up (subjects with CSBD [1]; subject CSB2): 15 | Sensitivity to Reward, pre-administration (subjects with CSBD [1]; subject CSB2): 15 | Sensitivity to Reward at 2-week follow up (subjects with CSBD [1]; subject CSB3): 9 | Sensitivity to Reward, pre-administration (subjects with CSBD [1]; subject CSB3): 17 | % change in Sensitivity to Reward (subjects with CSBD [1]; subject CSB3): −47.06% | PGSI score at 2-week follow up ([2]; subject G1): 5 | PGSI score, pre-administration ([2]; subject G1): 4 | % change in PGSI score ([2]; subject G1): +25% | PGSI score at 2-week follow up ([2]; subject G2): 11 | PGSI score, pre-administration ([2]; subject G2): 16 | % change in PGSI score ([2]; subject G2): −31.25% | PGSI score at 2-week follow up ([2]; subject G3): 18 | PGSI score, pre-administration ([2]; subject G3): 21 | % change in PGSI score ([2]; subject G3): −14.29% | PGSI classification at two-week follow up ([2]; subject G4): low-risk (mild) gambler (a score of between 1 and 2 is a low-risk gamber (mild)) | PGSI score at 2-week follow up ([2]; subject G4): 1 | PGSI classification, pre-administration ([2]; subject G4): moderate-risk (moderate) gambler (a score of 3-7 is a moderate-risk gambler (moderate)) | PGSI score, pre-administration ([2]; subject G4): 3 | % change in PGSI score ([2]; subject G4): −66.67% | PGSI classification at two-week follow up ([2]; subject G5): low-risk (mild) gambler (a score of between 1 and 2 is a low-risk gamber (mild)) | PGSI score at 2-week follow up ([2]; subject G5): 2 | PGSI classification, pre-administration ([2]; subject G5): problem (severe) gambler (a score of 8 or above is a problem gambler (severe)) | PGSI score, pre-administration ([2]; subject G5): 11 | % change in PGSI score ([2]; subject G5): −81.82% | hours of pornography watched daily at 2-week follow up (subjects with CSBD [3]; subject CSB1): 0.5 h | hours of pornography watched daily, pre-administration (subjects with CSBD [3]; subject CSB1): 2 h | % change in hours of pornography viewed (subjects with CSBD [3]; subject CSB1): −75% | hours of pornography watched daily at 2-week follow up (subjects with CSBD [3]; subject CSB2): 3 h | hours of pornography watched daily, pre-administration (subjects with CSBD [3]; subject CSB2): 4 h | % change in hours of pornography viewed (subjects with CSBD [3]; subject CSB2): −25% | hours of pornography watched daily at 2-week follow up (subjects with CSBD [3]; subject CSB3): 1 h | hours of pornography watched daily, pre-administration (subjects with CSBD [3]; subject CSB3): 1 h
